Assay results taken from US4766110A, “Novel complex amido and imido derivatives of carboxyalkyl peptides” (priority 1986, dated 1988).
“Also recorded” adds a separate entry of the source.

Assays:
[1] = Loss of activity of aqueous SQ14225 solution on standing; type: physicochemical; settings: 1 mg per ml, pH of about 8, ambient conditions
[2] = cited from earlier work
[3] = molecular target: T1, human plasma angiotensin converting enzyme (Homo sapiens, UniProt P12821); assay: In vitro assay of inhibition of angiotensin converting enzyme; type: biochemical; settings: [3H]benzoyl-Gly-His-Leu 80 nM, pH 8.0, 37° C., 15 minutes, I50 approximates Ki
T1 construct: partially-purified human plasma angiotensin converting enzyme; from tissue; host or cells: human plasma
Description: Compounds of this invention were assayed through the following protocol: 25 microliters of buffer (0.05M Hepes buffer, pH 8.0, plus 0.1M NaCl and 0.75M Na2 SO4) or 25 microliters of an inhibitor in buffer was added to the bottom of a 7 ml liquid scintillation vial. To this was added 100 microliters of buffered substrate [S], [^3 H]benzoyl-Gly-His-Leu, 80 nM (25 Ci/mmole). The reaction was started by adding 100 microliters of partially-purified human plasma angiotensin converting enzyme, or 100 microliters of buffer alone. The concentration of enzyme [E] used was that required to hydrolyze 8-12% of substrate when incubated at 37° C. for 15 minutes. The scintillation vials and their contents were incubated at 37° C. for 15 minutes, and the reactions were stopped by adding 200 microliters of 0.5M HCl to each vial. The radioactive reaction product, [^3 H]benzoyl-Gly(hippuric acid), was separated from unhydrolyzed substrate by adding and mixing (by inversion) 3 ml of Ventrex Cocktail No. 1 (Ventrex Laboratories, Inc., Portland, Maine), a fluid disclosed in copending U.S. patent application Ser. No. 184,653, filed Sept. 6, 1980. Extractable ^3 H was quantified by liquid scintillation counting. Substrate, in c.p.m., was quantified by scintillation counting of a vial containing 100 μl of buffered substrate in 5 ml of RIAfluor (New England Nuclear). The reaction mixture containing al constituents except for inhibitor was termed the control (C). The reaction mixture lacking enzyme and inhibitor was called the blank (B). Reaction mixtures containing inhibitor (varied over the range of 10^-4 -10^-12 M) were called the test (T) reactions. Under the conditions of this assay, the reaction obeys first order enzyme kinetics, thus the concentration of inhibitor required to inhibit the rate of hydrolysis by half (I50) approximates the Ki value. The results were estimated by use of the formula: [formula] where C=control c.p.m.; B=blank c.p.m.; [S]=substrate c.p.m. The factor 100 converts fractional substrate utilization into percentage utilization,and 1/15 minute corrects to percentage substrate utilization/minute. Thus, [E] is enzyme activity in percentage substrate utilization/minute. By substituting T for C, hydrolysis rates are computed for the test reaction mixtures. By comparing a given test rate against the control rate, the degree of inhibition can be computed.

[4] = tested on: mean arterial blood pressure response to angiotensin I; assay: Intravenous effectiveness: blood pressure response to angiotensin I in anesthetized rats; type: in vivo; settings: for Blood Pressure Response to 400 ng/kg of Angiotensin I: rat, 0.5 μmole/kg IV
Description: Rats (190-290 g body weight) were fasted overnight and then anesthetized with intraperitoneal pentobarbital, 50-60 mg/kg. Tracheostomy was performed and the animals were ventilated mechanically. A cannula was inserted into a femoral vein for injection of angiotensin I, and a second cannula was inserted into a common carotid artery for direct measurement of arterial blood pressure. Heparin, 1,000 units, was injected via the femoral vein to prevent coagulation. Blood pressure was measured with a pressure transducer connected to a polygraph. The rats were injected with […] of angiotensin I in 20 μl of 0.9 g % NaCl, an amount of angiotensin I sufficient to raise mean arterial blood pressure by approximately 48 mm Hg.
After the responsiveness of a given rat to angiotensin I was established, the named compound at 0.5 μmole/kg (drug dissolved in 15 microliters of 0.9% NaCl) was given intravenously. At time intervals, the effects of 400 ng/kg of angiotensin I on mean arterial blood pressure were tested. Results are shown below:
Experiments were carried out using rats according to Example 30.

T1 sequence (P12821 30-1232 limits assumed): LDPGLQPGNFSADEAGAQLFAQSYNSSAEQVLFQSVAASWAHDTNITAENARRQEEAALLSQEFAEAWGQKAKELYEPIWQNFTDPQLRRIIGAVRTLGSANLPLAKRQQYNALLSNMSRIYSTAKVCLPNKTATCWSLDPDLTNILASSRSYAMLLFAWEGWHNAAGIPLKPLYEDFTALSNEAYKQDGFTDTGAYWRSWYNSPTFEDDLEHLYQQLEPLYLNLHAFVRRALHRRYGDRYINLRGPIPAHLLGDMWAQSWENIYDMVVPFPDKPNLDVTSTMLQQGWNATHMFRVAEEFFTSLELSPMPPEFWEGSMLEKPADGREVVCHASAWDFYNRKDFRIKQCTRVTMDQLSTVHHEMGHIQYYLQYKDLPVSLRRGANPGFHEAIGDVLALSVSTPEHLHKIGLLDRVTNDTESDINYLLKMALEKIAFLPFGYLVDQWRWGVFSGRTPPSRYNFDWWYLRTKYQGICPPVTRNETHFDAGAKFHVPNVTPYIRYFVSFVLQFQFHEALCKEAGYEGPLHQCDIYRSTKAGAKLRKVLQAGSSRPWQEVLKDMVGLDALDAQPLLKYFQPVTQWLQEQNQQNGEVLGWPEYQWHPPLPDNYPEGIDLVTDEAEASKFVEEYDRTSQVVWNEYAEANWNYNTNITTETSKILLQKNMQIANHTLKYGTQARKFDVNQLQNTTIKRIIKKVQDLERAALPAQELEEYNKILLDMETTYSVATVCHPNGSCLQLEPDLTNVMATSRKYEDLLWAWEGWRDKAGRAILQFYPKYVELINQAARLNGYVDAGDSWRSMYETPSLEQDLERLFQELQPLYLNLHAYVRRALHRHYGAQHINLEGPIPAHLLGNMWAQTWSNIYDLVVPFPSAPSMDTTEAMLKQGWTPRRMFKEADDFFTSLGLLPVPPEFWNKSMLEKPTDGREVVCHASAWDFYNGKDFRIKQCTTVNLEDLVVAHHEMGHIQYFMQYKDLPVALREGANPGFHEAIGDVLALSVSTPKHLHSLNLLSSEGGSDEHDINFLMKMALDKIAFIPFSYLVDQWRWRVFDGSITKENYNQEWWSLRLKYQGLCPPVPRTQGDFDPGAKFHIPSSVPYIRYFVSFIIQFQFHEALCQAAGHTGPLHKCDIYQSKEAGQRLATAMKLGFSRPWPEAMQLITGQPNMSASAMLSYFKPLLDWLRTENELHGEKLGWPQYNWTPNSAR

SMILES | IC50 [3] | Blood Pressure Response to 400 ng/kg of Angiotensin I ([4]; 5 min after administration) | Blood Pressure Response to 400 ng/kg of Angiotensin I ([4]; 10 min after administration) | Blood Pressure Response to 400 ng/kg of Angiotensin I ([4]; 15 min after administration) | Blood Pressure Response to 400 ng/kg of Angiotensin I ([4]; 20 min after administration) | Blood Pressure Response to 400 ng/kg of Angiotensin I ([4]; 25 min after administration) | Blood Pressure Response to 400 ng/kg of Angiotensin I ([4]; 30 min after administration) | Blood Pressure Response to 400 ng/kg of Angiotensin I ([4]; 50 min after administration) | Blood Pressure Response to 400 ng/kg of Angiotensin I ([4]; 60 min after administration) | Blood Pressure Response to 400 ng/kg of Angiotensin I ([4]; 70 min after administration) | Blood Pressure Response to 400 ng/kg of Angiotensin I ([4]; 80 min after administration) | Blood Pressure Response to 400 ng/kg of Angiotensin I ([4]; +1 min after administration) | further results
C[C@H](CS)C(=O)N1CCC[C@H]1C(=O)O [SQ14225, D-3-mercapto-2-methylpropanoyl-L-proline] | – | – | – | – | – | – | – | – | – | – | – | – | activity of fresh aqueous solution on standing [1]: becomes substantially less active upon standing for as little as 30 minutes; renal biopsy findings ([2]; 13 patients treated with SQ14225, Hoorntje et al.): evidence of immune complex deposition along the glomerular basement membranes; adverse effects in man ([2]; patients, Gavras et al.): occasional allergic reactions; also recorded: fevers and rashes
CC(N[C@@H](CCC(=O)Nc1ccccc1)C(=O)O)C(=O)N1CCC[C@H]1C(=O)O (stereo partly drawn) [Example 26, N-[L-1-carboxy-3-(carbo-anilide)propyl]-Alanyl-L-Proline] | 5.2 nM | 37 % of Control | 37 % of Control | 40 % of Control | 40 % of Control | 40 % of Control | 35 % of Control | 46 % of Control | 46 % of Control | 48 % of Control | 52 % of Control | 42 % of Control | IC50 ([3]; listed as N-[L-1-carboxy-3-(carboanilide)propyl]-D,L-Ala-L-Pro): ~1 nM; Blood Pressure Response to 400 ng/kg of Angiotensin I ([4]; 40 min after administration): 35 % of Control; Blood Pressure Response to 400 ng/kg of Angiotensin I ([4]; 90 min after administration): 54 % of Control; Blood Pressure Response to 400 ng/kg of Angiotensin I ([4]; 102 min after administration): 62.5 % of Control
CC(N[C@@H](CC(=O)N1CCCC1)C(=O)O)C(=O)N1CCC[C@H]1C(=O)O (stereo partly drawn) [Example 28, N-[L-1-carboxy-2-(carbopyrrolide)ethyl]-Alanyl-L-Proline] | 140 nM | – | – | – | – | – | – | – | – | – | – | – | IC50 ([3]; listed as N-[L-1-carboxy-2-(carbopyrrolide)ethyl]-D,L-Ala-Pro): ~100 nM
CC(N[C@@H](CCC(=O)Nc1ccc(I)cc1)C(=O)O)C(=O)N1CCC[C@H]1C(=O)O (stereo partly drawn) [Example 27, N-[L-1-carboxy-3-(carbo-4-iodo-anilide)propyl]-Alanyl-L-Proline] | 0.23 nM | 42 % of Control | 46 % of Control | 52 % of Control | 60 % of Control | 67 % of Control | 71 % of Control | 83 % of Control | 92 % of Control | 100 % of Control | 104 % of Control | 33 % of Control | IC50 ([3]; listed as N-[L-1-carboxy-3-(carbo-4-iodoanilide)propyl]-D,L-Ala-L-Pro): ~1 nM; increase in intravenous effectiveness on removal of iodine ([4]; de-iodo compound versus the 4-iodoanilide): three-fold; Blood Pressure Response to 400 ng/kg of Angiotensin I ([4]; 35 min after administration): 71 % of Control
